According to PMC9175492 (Molecular pharmaceutics, 2022):
Numbered stars: 1 amine (or outer) side, 2 acyl side, 3 side chain; on linkers, the order of the positions; unused ones are H or OH. Bridge positions count the residues as written; N and C are the ends. Square brackets hold non-standard residues; d marks the D form. Peptide text beside a SMILES is read from it. I, II: the chains in the order shown. X2 = NC(=O)[C@H](CCCCNC(=O)COCCOCCN[*:1])N[*:2]; 2Nal = N[C@@H](Cc1ccc2ccccc2c1)C(=O)O; Bta = N[C@@H](Cc1csc2ccccc12)C(=O)O

What was measured:
[1] = test system: HeLa cells; assay: MTT cell viability assay; format: cell-based, human; details: 72 h, DMEM 10% FBS
[2] = test system: HeLa (human cervical cancer) cells; details: 10% fetal bovine serum; cited from earlier work
[3] = ratio of cytosolic versus extracellular concentration; cited from earlier work
[4] = test system: HeLa cells; assay: Apparent endosomal escape efficiency; format: cell-based, human; details: reference line, 10% or 1% FBS; defined as 100%
[5] = test system: intracellular Keap1-Nrf2 interaction, ARE reporter-HepG2 cells; assay: ARE luciferase reporter assay; format: cell-based; details: 18 h, 0% FBS, n = 5; for Increase of luciferase activity: 0.31 μM; for Maximal induction of luciferase expression: highest concentration tested (5 μM)

SMILES: N=C(N)NCCC[C@@H]1NC(=O)[C@H](Cc2ccc3ccccc3c2)NC(=O)[C@@H](Cc2ccccc2)NC(=O)[C@H](Cc2ccccc2)NC(=O)[C@H](CCC(N)=O)NC(=O)[C@@H](CCCNC(=N)N)NC(=O)[C@H](CCCNC(=N)N)NC(=O)[C@@H](CCCNC(=N)N)NC1=O [CPP12, cyclo(Phe-D-Phe-Nal-Arg-D-Arg-Arg-D-Arg-Gln)] (cyclo([2Nal]R[dR]R[dR]QF[dF]))
- Loss of viability of HeLa cells (MTT) ([1]; at ⩾550 μM concentration (so in the source)): ~ 40%
- Viability of HeLa cells (MTT) ([1]; up to 25 μM): did not reduce the viability
- Decrease of cytosolic entry efficiency in the presence of 10% FBS [2]: 25 fold
- Cytosolic entry efficiency [3]: 120%
- Apparent Endosomal Escape Efficiency (γ, %) [4]: 100%

SMILES: CC(C)C[C@@H]1NC(=O)[C@H](Cc2ccccc2)NC(=O)[C@H](CCC(=O)O)NC(=O)CNC(=O)[C@H]([C@@H](C)O)NC(=O)[C@H](CCC(=O)O)NC(=O)[C@@H]2CCCN2C(=O)[C@H](CC(=O)O)NC(=O)[C@H](CC(C)C)NC(=O)[C@H](CCC(=O)NCCOCCOCC(=O)NCCCC[C@H](NC(=O)CC[C@@H]2NC(=O)[C@@H](CCCNC(=N)N)NC(=O)[C@H](CCCNC(=N)N)NC(=O)[C@@H](CCCNC(=N)N)NC(=O)[C@H](CCCNC(=N)N)NC(=O)[C@H](Cc3csc4ccccc34)NC(=O)[C@@H](Cc3ccccc3)NC(=O)[C@H](Cc3ccccc3)NC2=O)C(N)=O)NC(=O)CNC1=O [CPP12-2-P1] (I: cyclo(FLGELDPETGE) / II: cyclo(F[dF][Bta]R[dR]R[dR]E); linker I:4-II:8 via X2)
- Increase of luciferase activity [5]: ~ 2 fold
- Maximal induction of luciferase expression [5]: three- to four-fold

SMILES: CC(C)C[C@@H]1NC(=O)[C@H](Cc2ccccc2)NC(=O)[C@H](CCC(=O)O)NC(=O)CNC(=O)[C@H]([C@@H](C)O)NC(=O)[C@H](CCC(=O)O)NC(=O)[C@@H]2CCCN2C(=O)[C@H](CC(=O)O)NC(=O)[C@H](CC(C)C)NC(=O)[C@H](CCC(=O)NCCOCCOCC(=O)NCCCC[C@H](NC(=O)CC[C@@H]2NC(=O)[C@@H](CCCNC(=N)N)NC(=O)[C@H](CCCNC(=N)N)NC(=O)[C@@H](CCCNC(=N)N)NC(=O)[C@H](CCCNC(=N)N)NC(=O)[C@H](Cc3ccc4ccccc4c3)NC(=O)[C@@H](Cc3ccccc3)NC(=O)[C@H](Cc3ccccc3)NC2=O)C(N)=O)NC(=O)CNC1=O [CPP12-P1] (I: cyclo(FLGELDPETGE) / II: cyclo(F[dF][2Nal]R[dR]R[dR]E); linker I:4-II:8 via X2)
- Increase of luciferase activity [5]: did not have significant effect
- Maximal induction of luciferase expression [5]: three- to four-fold

SMILES: CC(C)C[C@@H]1NC(=O)[C@H](Cc2ccccc2)NC(=O)[C@H](CCC(=O)O)NC(=O)CNC(=O)[C@H]([C@@H](C)O)NC(=O)[C@H](CCC(=O)O)NC(=O)[C@@H]2CCCN2C(=O)[C@H](CC(=O)O)NC(=O)[C@H](CC(C)C)NC(=O)[C@H](CCC(N)=O)NC(=O)CNC1=O [Peptide P1]
- Increase in luciferase activity ([5]; up to 5 μM): did not result in significant increase
